The subject of experiment [1] is E. coli. Particulars: cited from earlier work.
Experiment [2] deals with E. coli K-12 nalidixic acid-resistant mutants, Nal1-8. The experiment is described as follows: MIC determination to nalidixic acid, resistant mutants. Particulars: Escherichia coli. The class given is cell-based. On the procedure:
Table 3 recites E. coli K-12 nalidixic acid-resistant mutants, Nal1-8, isolated on 50 μg/ml nalidixic acid. Substitutions in the GyrA protein are indicated, as well as the MIC to nalidixic acid.
(§1) Over twenty different overnight cultures of a total of ˜10^11 E. coli K-12 cells were inoculated on Luria-Bertani (LB)-agar plates containing 50 μg/ml streptomycin or 50 μg/ml nalidixic acid. Resistant mutants emerged, in both cases, at a median frequency of ˜1 in 10^9 CFU, and were picked from different cultures, to reduce the occurrence of sibling mutants. These bacteria were streaked on an agar plate containing the appropriate antibiotic. The rpsL or gyrA genes of resistant mutants emerging on the plate were PCR-amplified followed by DNA sequencing.
(§2) MIC determination was carried out by following the procedure described by Wiegand et al. (19). Briefly, bacterial cells were grown overnight at 32° C. in LB and diluted to 10^7-10^9 CFU/ml. The obtained suspension was serially diluted 10-fold for different spot concentrations, as indicated. Approximately 1 μl of bacterial suspension was then spotted onto selection plates containing different concentrations of either streptomycin or nalidixic acid along with the appropriate selection agent (chloramphenicol or tellurite), as indicated, using a 48-pin replicator. Plates were incubated overnight and photographed using MiniBis Pro (Bio-Imaging Systems). Photographs were digitally manipulated using GIMP2 software to adjust contrast. Liquid-based MIC determination assays were carried out by inoculating serial dilutions of an antibiotic in liquid LB broth with bacterial cultures (OD600 ˜0.05) in 96-well microtiter plates. Plates were incubated overnight at 32° C. and OD600 was then measured. The lowest antibiotic concentration at which the relative growth compared to the “no-drug” control was below 10% was determined as the MIC.

For experiment [3], the system named is pathogenic E. coli. Particulars: 36 pathogenic E. coli resistant to high levels of nalidixic acid; cited from earlier work.
Experiment [4] has as its system E. coli K-12 streptomycin-resistant mutants, Sm1-22. In words: MIC determination to streptomycin, agar-plate assay, resistant mutants. The class given is cell-based. To be noted: Escherichia coli. The procedure: Table 2 recites the E. coli K-12 streptomycin-resistant mutants, Sm1-22, isolated on 50 μg/ml streptomycin. Substitutions in the RpsL protein are indicated, as well as the MIC to streptomycin.
as §1, §2
Minimum inhibitory concentration (MICs) to streptomycin were determined by agar-plate assay (19). In this assay, ˜10^4 cells are replica-plated on plates with different drug concentrations. The lowest concentration at which there is no visible colony-formation is defined as the MIC. The MICs throughout the study were also measured in a complementary liquid-determination assay, giving a similar readout (not shown). Two representatives of the most common streptomycin-resistant strains obtained above were taken for further study: strains Sm6 and Sm13, harboring mutations in rpsL leading to substitutions of R86S and K88R, respectively. […] These strains were transformed with the plasmid pRpsL-wt, encoding the wt rpsL, or a control plasmid, pRpsLΔ4, encoding a mock gene (a defective rpsL with a 4-bp deletion that disrupts the reading frame after amino acid 26 of the RpsL protein; see FIG. 1) under a modified early E. coli promoter from phage T7. Transformed cells were selected on agar plates supplemented with 35 μg/ml chloramphenicol, as the plasmid encodes chloramphenicol acetyl transferase, which confers chloramphenicol resistance. The MICs of the transformed strains to streptomycin were then determined.

For experiment [5], the system named is E. coli K-12 parental strain. The experiment is described as follows: MIC to streptomycin of the parental strain. The experiment is classed as cell-based. To be noted: Escherichia coli. On the procedure: MIC determination was carried out by following the procedure described by Wiegand et al. (19). Briefly, bacterial cells were grown overnight at 32° C. in LB and diluted to 10^7-10^9 CFU/ml. The obtained suspension was serially diluted 10-fold for different spot concentrations, as indicated. Approximately 1 μl of bacterial suspension was then spotted onto selection plates containing different concentrations of either streptomycin or nalidixic acid along with the appropriate selection agent (chloramphenicol or tellurite), as indicated, using a 48-pin replicator. Plates were incubated overnight and photographed using MiniBis Pro (Bio-Imaging Systems). […] Plates were incubated overnight at 32° C. and OD600 was then measured. […]
Minimum inhibitory concentration (MICs) to streptomycin were determined by agar-plate assay (19). […] The MICs throughout the study were also measured in a complementary liquid-determination assay, giving a similar readout (not shown). […] These strains were transformed with the plasmid pRpsL-wt, encoding the wt rpsL, or a control plasmid, pRpsLΔ4, encoding a mock gene (a defective rpsL with a 4-bp deletion that disrupts the reading frame after amino acid 26 of the RpsL protein; see FIG. 1) under a modified early E. coli promoter from phage T7. […] The MICs of the transformed strains to streptomycin were then determined.

Values after ≈ are worked out from the molar mass of the structure shown. Like-named read-outs stand apart in the source and are kept apart here. Where only a bound is given, the exact number is not on record here.

As for `O=[Te]([O-])[O-].[K+].[K+]` [tellurite, potassium-tellurite (K2TeO3)], the values for the MIC of tellurite in experiment [1] (E. coli either having or lacking the chromosomal tehAB genes) and in experiment [1] (cells harboring an extrachromosomal tehAB with an active promoter) were 2 µg/mL and 128 µg/mL, respectively. Further, the “Increase of MIC of tellurite upon tehAB expression from an active promoter” value in experiment [1] (tehAB expressed from an active promoter (e.g. T7)) is 50-100 fold.
As for `CCn1cc(C(=O)O)c(=O)c2ccc(C)nc21` [nalidixic acid], the minimum inhibitory concentration (MIC) in experiment [2] (read-out: MIC to nalidixic acid, mutant Nal1, GyrA S83L) is ≥ 50 µg/mL; in experiment [2] (read-out: MIC to nalidixic acid, mutant Nal2, GyrA S83L) it was ≥ 50 µg/mL; in experiment [2] (read-out: MIC to nalidixic acid, mutant Nal3, GyrA S83L) it was ≥ 50 µg/mL; in experiment [2] (read-out: MIC to nalidixic acid, mutant Nal4, GyrA D87G), 128 µg/mL (≈ 551 µM); in experiment [2] (read-out: MIC to nalidixic acid, mutant Nal5, GyrA D87G), 128 µg/mL (≈ 551 µM); in experiment [2] (read-out: MIC to nalidixic acid, mutant Nal6, GyrA D87G), 128 µg/mL (≈ 551 µM). The MIC in experiment [2] (read-out: MIC to nalidixic acid, mutant Nal7, GyrA D87G) amounted to 128 µg/mL (≈ 551 µM); in experiment [2] (read-out: MIC to nalidixic acid, mutant Nal8, GyrA D87G) it was 128 µg/mL (≈ 551 µM). Further, the “MIC of nalidixic acid” value in experiment [3] was ≥ 256 µg/mL.
Turning to `[H]/N=C(/N)N[C@H]1[C@H](O)[C@@H](O)[C@H](O[C@@H]2O[C@@H](C)[C@](O)(C=O)[C@H]2O[C@@H]2O[C@@H](CO)[C@H](O)[C@@H](O)[C@@H]2NC)[C@@H](N/C(N)=N\[H])[C@@H]1O` [streptomycin], the minimum inhibitory concentration (MIC) was ≥ 50000 µg/mL in experiment [4] (read-out: MIC to streptomycin, mutant Sm1, RpsL P42S); ≥ 50000 µg/mL in experiment [4] (read-out: MIC to streptomycin, mutant Sm3, RpsL K43N); ≥ 50000 µg/mL in experiment [4] (read-out: MIC to streptomycin, mutant Sm4, RpsL R54S); ≥ 50000 µg/mL in experiment [4] (read-out: MIC to streptomycin, mutant Sm5, RpsL R86S); 100000 µg/mL (≈ 172000 µM) in experiment [4] (read-out: MIC to streptomycin, mutant Sm6, RpsL R86S); ≥ 50000 µg/mL in experiment [4] (read-out: MIC to streptomycin, mutant Sm7, RpsL R86S). Moreover, the MIC in experiment [4] (read-out: MIC to streptomycin, mutant Sm8, RpsL R86S) is ≥ 50000 µg/mL; in experiment [4] (read-out: MIC to streptomycin, mutant Sm9, RpsL R86S) it was ≥ 50000 µg/mL; in experiment [4] (read-out: MIC to streptomycin, mutant Sm10, RpsL R86S) it was ≥ 50000 µg/mL; in experiment [4] (read-out: MIC to streptomycin, mutant Sm11, RpsL K88E) it was ≥ 50000 µg/mL; in experiment [4] (read-out: MIC to streptomycin, mutant Sm22, no substitution in RpsL) it was ≥ 50000 µg/mL; in experiment [4] (read-out: MIC to streptomycin, resistant mutant Sm6 (R86S) without sensitizing construct), 100 µg/mL. In addition, the MIC is 200 µg/mL in experiment [4] (read-out: MIC to streptomycin, resistant mutant Sm13 (K88R) without sensitizing construct) and 1.56 µg/mL (≈ 2.68 µM) in experiment [5].

One may read the MIC as the lowest concentration found to suppress growth.

(Values after patent US8865158B2, “Bacteriophages for reducing toxicity of bacteria” (priority 2012, dated 2014).)
